# Assay results: patent publication US20260232699A1, “COMPOSITIONS OF A CANNABINOID AND A KINASE INHIBITOR FOR THE TREATMENT OF CANCER” (SINOVEDA CANADA INC., priority 2023, published 2026)
# pIC50: −log10 of the molar value.
# Columns and labels:
# HepG2 cells = test: rtPCR gene expression analysis (TaqMan array card); type: cell-based, human; conditions: 6 h at IC50 concentration, relative to negative control
# Experimental: Target cancer gene pathways were analyzed using a custom Taqman® array card exploring 90 unique genes associated with cancer related pathways (Kanehisa, Goto et al. 2010).
# Two million HepG2 cells in IMDM media with 20% FBS, and 1% ethanol were seeded in T75 flasks and incubated at 37° C., 7.5% CO2 until 70-80% confluent (approx. […]). […] Untreated cells were included as a negative control. Glyceraldehyde-3-phosphate dehydrogenase (GAPDH) was included as an endogenous control and used for normalization of the data.
# Following a 6-hour incubation with the test compounds, the RNA was extracted using Invitrogen's Dynabead mRNA DIRECT kit using the recommended protocol to provide 50 μL of a purified mRNA solution. Fifty μL of RT master mix was mixed into the mRNA solution and the mixture left to react at 37° C. for 60 minutes. Reverse transcriptase inactivation was performed at 95° C. for 5 minutes and the resulting cDNA samples were kept at 4° C. until use. Fifty-five microliters of TaqMan Fast Advance master mix were added to an equal amount of cDNA sample containing 1 μg/100 μl of cDNA, which was loaded into each card reservoir. The cards were centrifuged twice at 1200 RPM for 3 minutes in a Legend XFR centrifuge and the rtPCR reaction was conducted in a QuantStudio7 PCR instrument using the recommended settings with 40 amplification cycles. Data processing was done using ThermoFisher's Connect™ application.
# [1] = test system: HCC PDX models 575, 658, and LI-011; test: Clonogenic assay on patient-derived xenograft tumor cells; type: cell-based; conditions: Homo sapiens, 336 h; 575, 658, LI-011; 14 days continuous exposure; P=0.023; read-out: IC50 values, all PDX models examined
# Experimental: Tumor xenografts (patient-derived: 575, […], and LI-011; as well as cell line-derived: HepG2) were passaged as subcutaneous xenografts in NMRI nu/nu mice. Once tumor volumes reached 600-1000 mm^3, tumors were harvested according to FELASA and GV-SOLAS animal welfare guidelines. Tumors were mechanically disaggregated and subsequently incubated with collagenase type IV (41 U/mL), DNase I (125 U/mL), hyaluronidase type III (100 U/mL), and dispase II (1 U/mL) in RPMI 1640 medium at 37° C. for 60-120 minutes. Cells were filtered through 100 μm and 40 μm mesh size sieves and washed with the same media devoid of enzymes and stored in liquid nitrogen vapor phase.
# The clonogenic assay was carried out in 96 well, ultra-low attachment plates. Frozen aliquots of tumor cells were prepared from HepG2 HCC cells and the three tumor xenografts described above. Cells were thawed in Iscove's Modified Dulbecco's Medium (IMDM), supplemented with 20% (v/v) fetal calf serum, 50 μg/ml gentamicin, 1% ethanol, and 0.4% (w/v) agar prior to use. Test wells were first layered with 100 μl of the same soft-agar medium followed by 50 μl of media with tumor cells. Following solidification, the soft-agar layer was covered with 90 μl of the same culture medium without agar. After 24 hours, 10 μl of test compounds or control medium were added and left for 14 days (continuous exposure, 100 μl drug overlay). […]
# [2] = test system: pool of normal hepatocytes (HC3_23); test: Normal hepatocyte toxicity, Calcein-AM; type: cell-based; conditions: Homo sapiens, 48-hour incubation, William's E media
# Experimental: To evaluate the safety margin of the compounds prior to clinical trials, the toxicity of the compounds toward a pool of normal hepatocytes was investigated in-house using a hepatocyte pool obtained from Xenotech (HC3_23). Cells were thawed and plated in 96 well, black walled, gamma-irradiated plates (100 μl) after reconstitution in William's E media with Gibco hepatocellular maintenance supplement. Following an 18-hour recovery period, the media was exchanged with the same media containing 9 serial dilutions of the test compound mixtures (8 to 2000 μg/ml). Experiments were performed in triplicate. Following a 48-hour incubation period, Calcein-AM was added to provide a final concentration of 7 ng/ml to each well and allowed to react for 60 minutes before readings were acquired (excitation 494 nm, emission 517 nm). Data were fit to sigmoidal curves using four-point logistic curve fitting software and the 50% inflection points used for IC50 values.
# [3] = sorafenib, cited from earlier work
# [4] = Clinical study, patients; cited from earlier work
smiles,measurement,setting,value
CNC(=O)c1cc(Oc2ccc(NC(=O)Nc3ccc(Cl)c(C(F)(F)F)c3)cc2)ccn1 [Sorafenib],ΔΔCt VEGFA,HepG2 cells; Angiogenesis,−2.101
same,ΔΔCt CAMK1,HepG2 cells; Ca Signaling,−1.249
same,ΔΔCt BAD,HepG2 cells; Cell Cycle,−1.712
same,ΔΔCt BAX,HepG2 cells; Cell Cycle,−1.835
same,ΔΔCt BCL2L1,HepG2 cells; Cell Cycle,−1.67
same,ΔΔCt BECN1,HepG2 cells; Cell Cycle,−1.627
same,ΔΔCt CCND2,HepG2 cells; Cell Cycle,−2.012
same,ΔΔCt CDK2,HepG2 cells; Cell Cycle,−1.072
same,ΔΔCt CDK4,HepG2 cells; Cell Cycle,−1.315
same,ΔΔCt CDK6,HepG2 cells; Cell Cycle,−1.273
same,ΔΔCt MAX,HepG2 cells; Cell Cycle,−1.278
same,ΔΔCt MNT,HepG2 cells; Cell Cycle,−1.155
same,ΔΔCt CTNNB1,HepG2 cells; Cellular Adhesion,−1.355
same,ΔΔCt MITF,HepG2 cells; Drug Resistance,−2.782
same,ΔΔCt TEAD2,HepG2 cells; HIPPO,−1.447
same,ΔΔCt SMO,HepG2 cells; Hedge Hog signaling,−1.125
same,ΔΔCt STAT1,HepG2 cells; JAK-STAT,−1.284
same,ΔΔCt ERBB2,HepG2 cells; MAP kinase,2.729
same,ΔΔCt MAP1LC3A,HepG2 cells; MAP kinase,−1.658
same,ΔΔCt MAP2K2,HepG2 cells; MAP kinase,−1.241
same,ΔΔCt MAP3K1,HepG2 cells; MAP kinase,−2.162
same,ΔΔCt MAPK8,HepG2 cells; MAP kinase,−1.245
same,ΔΔCt RASA1,HepG2 cells; MAP kinase,−2.013
same,ΔΔCt CRK,HepG2 cells; PI3K pathway,−3.778
same,ΔΔCt PIK3C2A,HepG2 cells; PI3K pathway,−2.308
same,ΔΔCt PIK3CA,HepG2 cells; PI3K pathway,−1.501
same,ΔΔCt PTEN,HepG2 cells; PI3K pathway,−1.165
same,ΔΔCt SMAD2,HepG2 cells; TGF signaling,−1.348
same,ΔΔCt GSK3B,HepG2 cells; Wnt signaling,−1.105
same,ΔΔCt ROCK1,HepG2 cells; Wnt signaling,−1.495
same,pIC50,[1],4.84
same,IC50,[2],70.1 µg/mL
same,"Solubility, μg/ml FaSSIF","[3]; fasted simulated intestinal fluid, value marked [1]",3.3 [1] μg/ml
same,F (oral bioavailability),[3]; value marked [1],0.38-0.49[1]
same,ClH (Hepatic clearance),[3]; value marked [3],~0.051-0.066[3] L/min
same,ClTB (Total body clearance),[3]; value marked [3],0.051-0.066[3] L/min
same,"Vd, ss (Volume of distribution at steady state)",[3]; value marked [3],1.01-1.3[3] L/kg
same,t½ (Half-life),[3]; value marked [3],14.09-18.23[3] hours
same,Tmax,[4],2 to 9.5 h
same,Total body clearance,[4],0.11 L/h/kg
same,Volume of distribution,[4],2.66 L/kg
